Consider one substance from patent US12383607B2, “Topical composition for improved healing of open wounds” (Eleos Pharmaceuticals, Inc., priority 2017, dated 2025).

For this assay, the system named is wound. The experiment in a line: Patient wound healing study. The assay is classed as in vivo, human. The note with it: topical application directly in the wound. From the text:
Thus, for example, a skin ailment could be treated using a disclosed composition as follows: • 1. Clean the skin ailment with soap and warm water, with either a wash cloth or gauze sponge. Cleaning may be lightly abrasive as the subject tolerates. Alternatively, the skin ailment can be cleaned with gauze, moistened with saline and hibiclens. Again, the cleaning may be lightly abrasive as the subject tolerates. • 2. Rinse the ailment thoroughly with warm water or saline so no soap residue remains. • 3. Apply the topical composition to a Q-Tip applicator and lightly cover the surface of the ailment with the composition. […] If eschar is present, apply the composition to the edge of the eschar and beneath the edge of the eschar. The composition need not be applied to the top of the eschar. • 4. Cover the ailment with dry gauze. Wrap and secure the gauze with Kling, Kerlex roll, or Ace wrap. The wrap should be loosely applied so as to secure the dressing but to not apply pressure to the ailment site. • 5. If there is surrounding dermatitis (redness), allow the area to dry (no wrap need be applied).
3. Summary of Patient Wound Healing Study
A summary of the results of a patient wound healing study are illustrated in Table 2 below. The average blood sugar (BS) change by age and class are shown in FIG. 2A and FIG. 2B, respectively. […]

Consider insulin, for which the healing entry was “significantly enhances healing” and the wound glucose level entry is reported as “decreases the wound glucose level”.
